Earlier results as cited in patent US20240398831A1, “COMPOSITIONS COMPRISING SMALL MOLECULE REGULATORS OF TUMOR IMMUNITY AND METHODS OF USING SAME” (Duke University, priority 2021, published 2024).

Test system: melanoma
Conditions: human, in vivo; cited from earlier work

Compound: CC/C(=C(\c1ccccc1)c1ccc(OCCN(C)C)cc1)c1ccccc1 [tamoxifen]
- results of studies in melanoma patients: equivocal
